Source: patent US12577529B2, “Methods for producing neural cells” (QUIVER HOLDINGS INC., priority 2021, dated 2026)

Assays:
[1] = tested on: NGN2 neurons (human iPS cell-derived excitatory neurons); assay: Optopatch excitability assay in NGN2 neurons; type: cell-based
Text: To characterize the intrinsic excitability activity of human iPS cell-derived excitatory neurons with the Optopatch platform the two iPS cell lines, “11a” and “20b”, from Example 1 were used. These two iPS cell lines were derived from two neurologically healthy male subjects. The 11a and 20b iPS cells are converted into excitatory neurons using a transcriptional programming approach whereby the pro-neuronal transcription factor NEUROGENIN2 (NGN2) is overexpressed using doxycycline responsive lentiviral constructs as described in Example 1. This process drives the rapid conversion of iPS cells into neurons that resemble cortical excitatory neurons.
The resulting neurons are cryopreserved and subsequently thawed.
The thawed cells are co-cultured with primary rodent glia to facilitate neuronal electrophysiological maturation. To enable Optopatch measurements, the cells are transduced with lentiviral constructs expressing Optopatch components driven by the neuronal excitatory promoter CAMK2A and signals are recorded from the cells 2 weeks later. At the time of Optopatch measurements, the NGN2 excitatory neuron are homogeneous and electrophysiologically active, yielding highly stereotyped and reproducible data across cells, dishes, differentiation rounds and cell lines.
Optopatch measurements are carried out in a custom-built ultra-widefield fluorescence microscope, as described herein. Using this platform, intrinsic excitability properties are recorded for 11a and 20b NGN2 neuronal cultures at DIV25 in the presence of synaptic blockers NBQX, D-AP5 and Gabazine to block AMPA, NMDA and GABA currents, respectively. A custom blue light stimulus protocol of three 500 ms blue light steps of increasing intensity (1, 15 and 75 mW/cm^2) followed by two 2 second ramps of linearly increasing intensity (0.5-10 mW/cm^2 and 0.5-110 mW/cm^2) is used to elicit a range of activity from individual neurons. ˜50 to 100 neurons are simultaneously stimulated and recorded in a single field of view.
High signal-to-noise ratio (SNR) fluorescence-time traces are generated, and action potentials can be detected with high fidelity. Individual action potentials are detected for each of the hundreds of neurons and recorded with Optopatch and plotted on a spike raster plot, where each row represents a single neuron, and each dot represents a detected spike. While individual neurons show a diversity of spiking behavior throughout the stimulus protocol, the average firing rate of the population is remarkably similar for both cell lines.
The sensitivity of an excitability assay for detecting pharmacological modulation in NGN2 neurons using the well-characterized compound quinidine, which is reported to increase spike width and reduce spike activity is tested. […] These changes can be observed in the individual traces at 10 μM and 30 μM quinidine.
Additional quantification of both the response to quinidine and retigabine in is determined using an Optopatch excitability assay. Quinidine has been reported to block several voltage-, Na^+ and Ca^++ gated potassium channels (KNa1.1, KCa5.1, K2P16.1, Kv1.5, Kv1.7, Kv10.1, Kv10.2), including two-pore forming channels as well as voltage gated Na^+ channels.

[2] = biological target: Kv7.2 (Homo sapiens, UniProt O43526); conditions: read-out: Kv7.2 EC50; cited from earlier work
Sequence of Kv7.2 (O43526 whole entry): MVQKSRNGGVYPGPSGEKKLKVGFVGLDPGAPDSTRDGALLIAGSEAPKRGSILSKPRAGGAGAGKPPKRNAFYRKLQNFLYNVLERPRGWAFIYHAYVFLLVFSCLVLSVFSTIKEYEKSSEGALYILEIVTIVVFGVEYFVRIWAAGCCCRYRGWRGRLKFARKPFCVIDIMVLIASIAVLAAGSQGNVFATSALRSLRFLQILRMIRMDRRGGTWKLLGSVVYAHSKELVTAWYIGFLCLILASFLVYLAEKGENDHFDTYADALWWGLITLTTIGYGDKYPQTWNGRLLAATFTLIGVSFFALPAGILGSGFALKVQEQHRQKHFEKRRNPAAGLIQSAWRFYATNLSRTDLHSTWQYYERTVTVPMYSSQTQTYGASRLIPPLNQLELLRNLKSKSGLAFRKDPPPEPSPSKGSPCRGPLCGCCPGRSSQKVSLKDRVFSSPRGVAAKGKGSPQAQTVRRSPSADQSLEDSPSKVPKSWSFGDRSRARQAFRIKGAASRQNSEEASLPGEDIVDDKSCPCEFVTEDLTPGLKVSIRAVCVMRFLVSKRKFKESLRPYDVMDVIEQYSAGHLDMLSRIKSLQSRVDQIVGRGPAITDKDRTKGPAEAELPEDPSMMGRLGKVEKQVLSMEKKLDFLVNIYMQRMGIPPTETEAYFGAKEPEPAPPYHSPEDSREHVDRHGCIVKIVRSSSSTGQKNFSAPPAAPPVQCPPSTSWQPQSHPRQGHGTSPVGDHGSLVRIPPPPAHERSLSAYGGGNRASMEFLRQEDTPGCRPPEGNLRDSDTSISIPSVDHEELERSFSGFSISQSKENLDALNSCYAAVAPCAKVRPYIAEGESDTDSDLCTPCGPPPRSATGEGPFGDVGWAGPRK

[3] = maximum concentration tested (30 μM)

SMILES	changes to spike waveform and firing rate ([1]; acute addition, observed in individual traces at 10 μM and 30 μM)	broadening of the spikes ([1]; concentration dependent)	mean firing rate (spike rate) versus vehicle ([1]; different concentrations, with increased blue light stimulus)	spike rate ([1]; higher stimulation intensities (15 and 75 mW/cm^2))	magnitude of the AhP depth (measured from the baseline fluorescence before the action potential) [1, 3]	spike rise time (measured from start to peak of the action potential) [1, 3]	spike width (measured from the base of the action potential) [1, 3]	time to the maximum of the after hyperpolarization (AhP) depth [1, 3]	EC50 [2] [µM]
C=C[C@H]1C[N@@]2CC[C@H]1C[C@@H]2[C@@H](O)c1ccnc2ccc(OC)cc12 [quinidine]	dramatic changes to both the spike waveform and firing rate	concentration dependent broadening of the spikes	dramatic reduction in spike rate	concentration dependent reduction in the spike rate	decreases	increases	increases	increases	–
CCOC(=O)Nc1ccc(NCc2ccc(F)cc2)cc1N [retigabine]	–	–	–	–	–	–	–	–	2.5
